The values that follow are results of earlier work, collected in patent publication US20090028935A1, “CARVEDILOL FORMS, COMPOSITIONS, AND METHODS OF PREPARATION THEREOF” (priority 2006, published 2009).

For this series the following is noted: background statement.

“Also recorded” adds a separate entry of the source. Where two headings read alike, the source gives them in different places.

Regarding `COc1ccccc1OCCNCC(O)COc1cccc2[nH]c3ccccc3c12` (racemic) [Carvedilol, (±)-1-(carbazol-4-yloxy)-3-[[2-(o-methoxyphenoxy)ethyl]amino]-2-propanol], the aqueous solubility entry is listed as “low solubility in aqueous media, especially in media of increasingly basic pH; also recorded: limited aqueous solubility, especially in basic aqueous media”. Under “listed as carvedilol”, the aqueous solubility result is listed as “pH dependent solubility with significantly lower solubility in the lower gastrointestinal tract”.
